Columns and labels:
Format in all cases: cell-based, human
[1] = test system: Mino cells; assay: Apoptosis by 7-AAD/Annexin V flow cytometry; settings: 48 hours, Compound A 3 or 12.5 μM, ibrutinib 10 or 30 μM, alone or combined (FIGS. 2-3)
Text: (§1) Annexin/PI flow cytometric analysis was used to determine percentage of apoptotic cells. […]

[2] = test system: Z138 cells; assay: Apoptosis by 7-AAD/Annexin V flow cytometry; settings: Z138, 48 hours; Compound A 3 or 12.5 μM, ibrutinib 10 or 30 μM, alone or combined (FIGS. 2-3)
Text: as §1

[3] = test system: Mino cells; assay: Cell cycle analysis by propidium iodide flow cytometry; settings: 48 hours, Compound A 13 μM, ibrutinib 10 μM, alone or combined (FIG. 5)
Experimental: Cells were fixed and stained with propidium iodide (PI) and were analyzed by flow cytometry.

[4] = test system: Z138 MCL cells; assay: CellTiter-Blue cell viability, combination (CI analysis); settings: Z138, 72 hours, single agent
Text: Cell viability was next assessed using the CellTiter-Blue reagent (Promega). The results of these experiments are shown in FIG. 8 and in the Table below.

[5] = test system: Mino MCL cells; assay: as above; settings: 72 hours, single agent
Text: Cell viability was next assessed using the CellTiter-Blue reagent (Promega).

[6] = test system: Mino cells; assay: Viability of MCL cells after inhibition of HDAC6
[7] = test system: Z138 cells; assay: Viability of MCL cells after inhibition of HDAC6
[8] = at Fa of combination dose 1.3E−6/3.1E−6
[9] = at Fa of combination dose 2.5E−6/6.2E−6
[10] = at Fa of combination dose 5.0E−6/12.5E−6
[11] = at Fa of combination dose 10.0E−6/25.0E−6
[12] = at Fa of combination dose 20.0E−6/50.0E−6
[13] = at Fa of combination dose 78.1E−9/195.3E−9
[14] = at Fa of combination dose 156.3E−9/390.6E−9
[15] = at Fa of combination dose 312.5E−9/781.2E−9
[16] = at Fa of combination dose 625.0E−9/1.6E−6

## C=CC(=O)N1CCC[C@@H](n2nc(-c3ccc(Oc4ccccc4)cc3)c3c(N)ncnc32)C1 [ibrutinib, reference compound]
[1]
  induction of apoptosis: induction of apoptosis
[2]
  induction of apoptosis: induction of apoptosis
[3]
  cell cycle distribution: little effect on cell cycle distribution
[4]; [8]
  Dm (PCI-32765): 56.7E−6
[4]; [9]
  Dm (PCI-32765): 146.1E−6
[4]; [10]
  Dm (PCI-32765): 376.3E−6
[4]; [11]
  Dm (PCI-32765): 969.0E−6
[4]; [12]
  Dm (PCI-32765): 2.5E−3
[4]; [13]
  Dm (PCI-32765): 1.3E−6
[4]; [14]
  Dm (PCI-32765): 3.3E−6
[4]; [15]
  Dm (PCI-32765): 8.6E−6
[4]; [16]
  Dm (PCI-32765): 22.0E−6
[5]; [8]
  Dm (PCI-32765): 5.1E−6
[5]; [9]
  Dm (PCI-32765): 10.2E−6
[5]; [10]
  Dm (PCI-32765): 20.5E−6
[5]; [12]
  Dm (PCI-32765): 83.0E−6
[5]; [13]
  Dm (PCI-32765): 308.7E−9
[5]; [14]
  Dm (PCI-32765): 621.3E−9
[5]; [15]
  Dm (PCI-32765): 1.3E−6
[5]; [16]
  Dm (PCI-32765): 2.5E−6

## O=C(CCCCCCNC(=O)c1cnc(N(c2ccccc2)c2ccccc2)nc1)NO [Compound A, 2-(diphenylamino)-N-(7-(hydroxyamino)-7-oxoheptyl)pyrimidine-5-carboxamide]
[1]
  induction of apoptosis: induction of apoptosis
[2]
  induction of apoptosis: induction of apoptosis
[6]
  cell viability: decreased viability
[7]
  cell viability: decreased viability
[3]
  cell cycle distribution: little effect on cell cycle distribution
[4]; [8]
  Dm (Cmpd A): 1.7E−6
[4]; [9]
  Dm (Cmpd A): 3.4E−6
[4]; [10]
  Dm (Cmpd A): 6.8E−6
[4]; [11]
  Dm (Cmpd A): 13.7E−6
[4]; [12]
  Dm (Cmpd A): 27.7E−6
[4]; [13]
  Dm (Cmpd A): 100.1E−9
[4]; [14]
  Dm (Cmpd A): 202.2E−9
[4]; [15]
  Dm (Cmpd A): 408.3E−9
[4]; [16]
  Dm (Cmpd A): 824.5E−9
[5]; [8]
  Dm (Cmpd A): 1.6E−6
[5]; [9]
  Dm (Cmpd A): 13.1E−6
[5]; [10]
  Dm (Cmpd A): 108.1E−6
[5]; [11]
  Dm (Cmpd A): 894.0E−6
[5]; [12]
  Dm (Cmpd A): 7.4E−3
[5]; [13]
  Dm (Cmpd A): 338.3E−12
[5]; [14]
  Dm (Cmpd A): 2.8E−9
[5]; [15]
  Dm (Cmpd A): 23.1E−9
[5]; [16]
  Dm (Cmpd A): 191.2E−9

From patent US20150105409A1, “HDAC INHIBITORS, ALONE OR IN COMBINATION WITH BTK INHIBITORS, FOR TREATING NONHODGKIN'S LYMPHOMA” (Acetylon Pharmaceticals, Inc., priority 2013, published 2015)
